Laboratory results as given in PMC7549094 (Journal of Medicinal Chemistry, 2020).

What was measured:
hr PPARg ag = biological target: T1, hr PPARg ag (Homo sapiens, UniProt P37231); experiment: receptor profile (Table S4); type: biochemical
T1 sequence (P37231 1-505): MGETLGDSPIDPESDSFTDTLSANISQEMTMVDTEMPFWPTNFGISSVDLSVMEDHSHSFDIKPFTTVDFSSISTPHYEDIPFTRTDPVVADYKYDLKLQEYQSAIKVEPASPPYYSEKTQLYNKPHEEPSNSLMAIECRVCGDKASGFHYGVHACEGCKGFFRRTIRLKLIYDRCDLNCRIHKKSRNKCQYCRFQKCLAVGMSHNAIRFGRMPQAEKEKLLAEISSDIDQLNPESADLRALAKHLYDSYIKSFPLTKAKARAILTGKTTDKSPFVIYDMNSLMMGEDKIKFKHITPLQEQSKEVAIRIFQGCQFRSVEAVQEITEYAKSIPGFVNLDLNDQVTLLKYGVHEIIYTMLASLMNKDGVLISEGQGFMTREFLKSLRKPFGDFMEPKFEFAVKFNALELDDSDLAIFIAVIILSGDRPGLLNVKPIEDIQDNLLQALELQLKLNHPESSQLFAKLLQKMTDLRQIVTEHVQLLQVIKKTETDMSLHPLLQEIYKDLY

hr ERBB2 = hr ERBB2 (Homo sapiens, UniProt P04626); experiment: receptor profile (Table S4); type: biochemical
Chain of hr ERBB2 (P04626 23-1255): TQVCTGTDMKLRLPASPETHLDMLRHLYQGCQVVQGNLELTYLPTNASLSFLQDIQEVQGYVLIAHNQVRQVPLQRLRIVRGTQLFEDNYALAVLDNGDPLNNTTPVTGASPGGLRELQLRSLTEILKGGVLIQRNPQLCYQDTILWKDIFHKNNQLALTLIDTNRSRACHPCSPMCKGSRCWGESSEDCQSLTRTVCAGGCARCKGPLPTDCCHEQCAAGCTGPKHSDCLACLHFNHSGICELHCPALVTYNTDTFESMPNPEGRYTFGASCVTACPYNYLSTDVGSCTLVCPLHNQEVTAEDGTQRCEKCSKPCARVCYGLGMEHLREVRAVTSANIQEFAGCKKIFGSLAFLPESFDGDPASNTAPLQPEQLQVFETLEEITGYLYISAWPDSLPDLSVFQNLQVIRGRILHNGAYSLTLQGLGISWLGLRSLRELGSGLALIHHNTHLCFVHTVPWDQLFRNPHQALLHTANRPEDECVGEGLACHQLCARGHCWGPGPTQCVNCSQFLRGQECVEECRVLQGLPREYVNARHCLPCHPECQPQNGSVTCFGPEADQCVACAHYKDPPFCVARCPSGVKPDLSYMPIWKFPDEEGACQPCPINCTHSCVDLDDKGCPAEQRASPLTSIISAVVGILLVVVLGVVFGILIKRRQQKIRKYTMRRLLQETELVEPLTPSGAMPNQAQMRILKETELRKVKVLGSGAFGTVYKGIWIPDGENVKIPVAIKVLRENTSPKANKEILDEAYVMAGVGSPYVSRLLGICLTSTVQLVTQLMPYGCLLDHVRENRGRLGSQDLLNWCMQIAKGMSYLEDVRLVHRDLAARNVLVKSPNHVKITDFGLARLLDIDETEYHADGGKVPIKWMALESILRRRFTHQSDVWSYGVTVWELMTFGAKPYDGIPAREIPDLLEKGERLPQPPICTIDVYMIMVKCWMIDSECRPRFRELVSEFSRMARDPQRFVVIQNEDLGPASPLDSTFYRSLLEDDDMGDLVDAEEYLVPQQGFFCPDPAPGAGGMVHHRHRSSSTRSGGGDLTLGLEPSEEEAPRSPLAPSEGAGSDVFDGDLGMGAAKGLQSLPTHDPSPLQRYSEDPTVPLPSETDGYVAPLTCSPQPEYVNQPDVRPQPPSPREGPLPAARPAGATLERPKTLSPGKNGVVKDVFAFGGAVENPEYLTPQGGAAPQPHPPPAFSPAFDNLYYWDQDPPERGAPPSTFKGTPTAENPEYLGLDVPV

hr D2 = hr D2 (Homo sapiens, UniProt P14416); experiment: receptor profile (Table S4); type: binding
Chain of hr D2 (P14416 whole entry): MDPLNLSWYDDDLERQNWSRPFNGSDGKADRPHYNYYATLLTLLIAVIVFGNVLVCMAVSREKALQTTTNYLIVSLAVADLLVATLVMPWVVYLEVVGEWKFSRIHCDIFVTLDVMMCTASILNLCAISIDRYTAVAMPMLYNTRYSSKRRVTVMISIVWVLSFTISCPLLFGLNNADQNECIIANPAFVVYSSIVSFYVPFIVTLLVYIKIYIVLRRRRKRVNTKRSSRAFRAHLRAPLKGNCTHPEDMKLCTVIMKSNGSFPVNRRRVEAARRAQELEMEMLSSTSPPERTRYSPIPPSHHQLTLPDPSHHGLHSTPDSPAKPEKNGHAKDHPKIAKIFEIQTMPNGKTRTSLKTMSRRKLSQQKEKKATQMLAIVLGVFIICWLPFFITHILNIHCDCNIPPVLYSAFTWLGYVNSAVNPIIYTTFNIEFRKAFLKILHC

hr Mot = hr Mot (Homo sapiens, UniProt O43193); experiment: receptor profile (Table S4); type: binding
Chain of hr Mot (O43193 whole entry): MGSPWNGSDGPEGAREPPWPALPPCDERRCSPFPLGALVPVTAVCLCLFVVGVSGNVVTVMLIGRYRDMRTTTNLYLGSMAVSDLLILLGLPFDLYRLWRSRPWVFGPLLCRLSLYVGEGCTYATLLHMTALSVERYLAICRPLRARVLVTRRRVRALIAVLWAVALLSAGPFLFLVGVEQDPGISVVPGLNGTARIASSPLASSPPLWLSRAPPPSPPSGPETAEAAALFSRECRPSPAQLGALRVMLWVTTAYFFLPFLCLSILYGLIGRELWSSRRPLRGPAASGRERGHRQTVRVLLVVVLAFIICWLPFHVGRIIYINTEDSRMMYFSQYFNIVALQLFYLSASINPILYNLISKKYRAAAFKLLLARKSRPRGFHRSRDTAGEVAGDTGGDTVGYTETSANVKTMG

[1] = microsomal extraction ratio, 1 h incubation in microsomes
hr ETa = biological target: T2, hr ETa (Homo sapiens, UniProt P25101); experiment: receptor profile (Table S4); type: binding
T2 sequence (P25101 21-427): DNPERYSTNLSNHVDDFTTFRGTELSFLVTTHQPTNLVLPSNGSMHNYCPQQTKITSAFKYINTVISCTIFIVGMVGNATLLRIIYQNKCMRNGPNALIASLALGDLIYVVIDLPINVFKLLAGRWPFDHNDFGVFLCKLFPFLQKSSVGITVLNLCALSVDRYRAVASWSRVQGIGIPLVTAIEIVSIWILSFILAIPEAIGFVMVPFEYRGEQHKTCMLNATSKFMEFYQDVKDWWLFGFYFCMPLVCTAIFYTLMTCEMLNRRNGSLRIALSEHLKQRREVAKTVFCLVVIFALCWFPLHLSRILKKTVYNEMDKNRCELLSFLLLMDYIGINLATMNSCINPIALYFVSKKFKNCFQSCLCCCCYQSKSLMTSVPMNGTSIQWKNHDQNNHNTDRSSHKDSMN

hr PDE4D = hr PDE4D (Homo sapiens, UniProt Q08499); experiment: receptor profile (Table S4); type: biochemical
Chain of hr PDE4D (Q08499 whole entry): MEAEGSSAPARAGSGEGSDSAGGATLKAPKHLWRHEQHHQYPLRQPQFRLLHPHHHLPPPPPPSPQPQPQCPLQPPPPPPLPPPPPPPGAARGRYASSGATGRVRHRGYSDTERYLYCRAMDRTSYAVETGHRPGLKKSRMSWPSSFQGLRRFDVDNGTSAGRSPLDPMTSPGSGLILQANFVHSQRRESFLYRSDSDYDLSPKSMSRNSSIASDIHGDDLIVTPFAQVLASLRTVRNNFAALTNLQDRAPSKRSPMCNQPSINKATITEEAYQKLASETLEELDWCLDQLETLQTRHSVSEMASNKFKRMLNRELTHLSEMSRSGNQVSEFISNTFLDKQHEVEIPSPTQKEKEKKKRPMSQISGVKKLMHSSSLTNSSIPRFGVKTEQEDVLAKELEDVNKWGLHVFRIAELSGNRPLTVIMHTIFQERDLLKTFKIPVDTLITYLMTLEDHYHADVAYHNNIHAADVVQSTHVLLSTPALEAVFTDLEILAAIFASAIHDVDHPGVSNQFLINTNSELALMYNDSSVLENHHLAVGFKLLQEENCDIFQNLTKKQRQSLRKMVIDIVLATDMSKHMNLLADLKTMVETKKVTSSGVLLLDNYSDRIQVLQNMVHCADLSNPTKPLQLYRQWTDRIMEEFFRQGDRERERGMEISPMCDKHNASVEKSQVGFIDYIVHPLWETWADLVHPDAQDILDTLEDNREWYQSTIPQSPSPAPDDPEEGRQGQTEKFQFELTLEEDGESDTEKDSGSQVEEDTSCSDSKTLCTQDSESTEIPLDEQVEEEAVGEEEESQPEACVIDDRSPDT

hr Beta2 ag = hr Beta2 ag (Homo sapiens, UniProt P07550); experiment: receptor profile (Table S4); type: biochemical
Chain of hr Beta2 ag (P07550 whole entry): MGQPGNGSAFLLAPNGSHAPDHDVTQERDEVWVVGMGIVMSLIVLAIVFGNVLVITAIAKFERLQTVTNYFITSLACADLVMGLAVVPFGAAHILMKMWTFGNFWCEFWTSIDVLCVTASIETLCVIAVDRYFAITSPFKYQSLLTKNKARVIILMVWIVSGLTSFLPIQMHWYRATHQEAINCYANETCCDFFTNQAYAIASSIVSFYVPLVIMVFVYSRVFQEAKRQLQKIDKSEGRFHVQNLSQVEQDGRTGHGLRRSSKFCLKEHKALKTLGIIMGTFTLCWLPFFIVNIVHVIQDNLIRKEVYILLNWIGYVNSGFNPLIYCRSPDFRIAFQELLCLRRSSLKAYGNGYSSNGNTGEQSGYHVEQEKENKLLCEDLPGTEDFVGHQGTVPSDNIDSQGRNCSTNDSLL

[2] = metabolite profile in mouse hepatocytes; type: in vitro ADME; details: 10 μM of 1 for 4 h, UV 250 nm, normalized to largest peak
hr KDR = hr KDR (Homo sapiens, UniProt P35968); experiment: receptor profile (Table S4); type: biochemical
hr Al1A antag = biological target: T3, hr Al1A antag (Homo sapiens, UniProt P35348); experiment: receptor profile (Table S4); type: biochemical
T3 sequence (P35348 1-466): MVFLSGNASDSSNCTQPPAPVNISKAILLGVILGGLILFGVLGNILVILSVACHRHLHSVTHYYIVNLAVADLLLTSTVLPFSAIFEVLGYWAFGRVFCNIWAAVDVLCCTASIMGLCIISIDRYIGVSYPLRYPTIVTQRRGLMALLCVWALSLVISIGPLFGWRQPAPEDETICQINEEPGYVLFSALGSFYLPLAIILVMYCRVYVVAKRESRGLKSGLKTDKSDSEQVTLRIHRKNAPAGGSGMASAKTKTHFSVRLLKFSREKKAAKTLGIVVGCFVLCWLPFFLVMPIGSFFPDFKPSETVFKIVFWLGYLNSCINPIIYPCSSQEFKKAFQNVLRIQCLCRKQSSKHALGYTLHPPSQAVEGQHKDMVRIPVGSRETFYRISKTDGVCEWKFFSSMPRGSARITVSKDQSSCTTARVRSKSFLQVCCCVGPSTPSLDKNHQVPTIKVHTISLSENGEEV

hr 5-HTT = hr 5-HTT (Homo sapiens, UniProt P31645); experiment: receptor profile (Table S4); type: binding
Chain of hr 5-HTT (P31645 whole entry): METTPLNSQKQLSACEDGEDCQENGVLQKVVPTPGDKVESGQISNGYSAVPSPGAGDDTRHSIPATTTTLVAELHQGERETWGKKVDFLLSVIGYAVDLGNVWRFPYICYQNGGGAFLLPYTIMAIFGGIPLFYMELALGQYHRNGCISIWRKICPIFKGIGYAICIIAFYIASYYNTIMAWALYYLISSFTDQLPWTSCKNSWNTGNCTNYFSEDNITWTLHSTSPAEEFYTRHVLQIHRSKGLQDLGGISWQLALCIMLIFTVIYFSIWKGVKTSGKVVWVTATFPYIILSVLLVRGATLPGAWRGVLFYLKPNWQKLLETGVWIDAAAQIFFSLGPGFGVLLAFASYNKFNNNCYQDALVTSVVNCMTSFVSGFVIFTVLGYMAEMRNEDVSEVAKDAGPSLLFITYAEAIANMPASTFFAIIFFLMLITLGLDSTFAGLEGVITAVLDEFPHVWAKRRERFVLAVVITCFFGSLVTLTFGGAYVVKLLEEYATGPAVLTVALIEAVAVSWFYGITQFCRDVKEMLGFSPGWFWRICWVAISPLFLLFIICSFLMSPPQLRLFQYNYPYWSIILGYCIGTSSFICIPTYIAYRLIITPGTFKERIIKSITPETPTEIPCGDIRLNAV

hr D3 = hr D3 (Homo sapiens, UniProt P35462); experiment: receptor profile (Table S4); type: binding
Chain of hr D3 (P35462 whole entry): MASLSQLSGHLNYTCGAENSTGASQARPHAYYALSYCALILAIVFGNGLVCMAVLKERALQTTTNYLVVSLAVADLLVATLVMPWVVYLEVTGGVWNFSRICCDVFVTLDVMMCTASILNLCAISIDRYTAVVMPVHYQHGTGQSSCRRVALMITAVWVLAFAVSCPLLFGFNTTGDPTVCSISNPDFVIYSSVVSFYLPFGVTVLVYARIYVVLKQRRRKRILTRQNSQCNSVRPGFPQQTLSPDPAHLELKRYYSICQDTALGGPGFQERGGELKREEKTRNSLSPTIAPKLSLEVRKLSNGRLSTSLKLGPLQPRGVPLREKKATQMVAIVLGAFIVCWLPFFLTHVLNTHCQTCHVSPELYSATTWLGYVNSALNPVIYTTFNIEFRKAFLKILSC

[3] = tested on: intramacrophage L. donovani amastigotes; experiment: L. donovani amastigote proliferation within primary mouse macrophages; type: cell-based; details: Leishmania donovani, Macrophage
hr D1 antag = hr D1 antag (Homo sapiens, UniProt P21728); experiment: receptor profile (Table S4); type: biochemical
Chain of hr D1 antag (P21728 whole entry): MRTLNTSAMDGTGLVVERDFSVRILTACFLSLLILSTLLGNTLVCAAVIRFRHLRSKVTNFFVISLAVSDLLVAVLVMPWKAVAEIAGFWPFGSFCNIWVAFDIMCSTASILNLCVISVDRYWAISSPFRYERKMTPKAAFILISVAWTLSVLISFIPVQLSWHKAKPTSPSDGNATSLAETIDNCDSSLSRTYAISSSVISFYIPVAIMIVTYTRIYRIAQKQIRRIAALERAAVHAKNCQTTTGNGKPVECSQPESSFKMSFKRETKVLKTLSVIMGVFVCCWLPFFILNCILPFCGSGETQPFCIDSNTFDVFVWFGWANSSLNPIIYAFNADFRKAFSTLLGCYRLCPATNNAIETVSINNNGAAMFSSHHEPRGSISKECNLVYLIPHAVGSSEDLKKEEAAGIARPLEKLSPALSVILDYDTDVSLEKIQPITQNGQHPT

[4] = in vivo micronucleus (MNT) study in rat

## Cc1nc(C)c(C(=O)Nc2ccc(F)c(-c3nc4ncc(-c5ncccc5C)cn4n3)c2)o1 [compound 1, N-(4-Fluoro-3-(6-(3-methylpyridin-2-yl)-[1,2,4]triazolo[1,5-a]pyrimidin-2-yl)phenyl)-2,4-dimethyloxazole-5-carboxamide]
Hr PPARg ag; hr PPARg ag
  EC50/IC50: > 30 µM
Hr PPARg ag; read-out: % inh/act @ 10 µM
  inhibition at 10 µM: 4%
Hr PPARg ag; read-out: % inh/act @ 30 µM
  inhibition at 30 µM: 5%
Hr ERBB2; hr ERBB2
  EC50/IC50: > 30 µM
Hr ERBB2; read-out: % inh/act @ 10 µM
  inhibition at 10 µM: 0%
Hr ERBB2; read-out: % inh/act @ 30 µM
  inhibition at 30 µM: 0%
Hr D2; hr D2
  EC50/IC50: > 30 µM
Hr D2; read-out: % inh/act @ 10 µM
  inhibition at 10 µM: 7%
Hr D2; read-out: % inh/act @ 30 µM
  inhibition at 30 µM: 15%
Hr Mot; hr Mot
  EC50/IC50: > 30 µM
Hr Mot; read-out: % inh/act @ 10 µM
  inhibition at 10 µM: -3%
Hr Mot; read-out: % inh/act @ 30 µM
  inhibition at 30 µM: 3%
[1]
  ER rat: < 0.18
Hr ETa; hr ETa
  EC50/IC50: > 30 µM
Hr ETa; read-out: % inh/act @ 10 µM
  inhibition at 10 µM: 2%
Hr ETa; read-out: % inh/act @ 30 µM
  inhibition at 30 µM: 13%
Hr PDE4D; hr PDE4D
  EC50/IC50: > 30 µM
Hr PDE4D; read-out: % inh/act @ 10 µM
  inhibition at 10 µM: 35%
Hr PDE4D; read-out: % inh/act @ 30 µM
  inhibition at 30 µM: 49%
Hr Beta2 ag; hr Beta2 ag
  EC50/IC50: > 30 µM
Hr Beta2 ag; read-out: % inh/act @ 10 µM
  inhibition at 10 µM: 1%
Hr Beta2 ag; read-out: % inh/act @ 30 µM
  inhibition at 30 µM: 7%
[2]
  abundance mouse: +++ (+++ > 75%)
Hr KDR; hr KDR
  EC50/IC50: > 30 µM
Hr KDR; read-out: % inh/act @ 10 µM
  inhibition at 10 µM: 21%
Hr KDR; read-out: % inh/act @ 30 µM
  inhibition at 30 µM: 22%
Hr Al1A antag; hr Al1A antag
  EC50/IC50: > 30 µM
Hr Al1A antag; read-out: % inh/act @ 10 µM
  inhibition at 10 µM: -4%
Hr Al1A antag; read-out: % inh/act @ 30 µM
  inhibition at 30 µM: 8%
R BZD
  % inh/act @ 10 µM: 7%
  % inh/act @ 30 µM: 7%
Hr 5-HTT; hr 5-HTT
  EC50/IC50: > 30 µM
Hr 5-HTT; read-out: % inh/act @ 10 µM
  inhibition at 10 µM: 17%
Hr 5-HTT; read-out: % inh/act @ 30 µM
  inhibition at 30 µM: 12%
Hr D3; hr D3
  EC50/IC50: > 30 µM
Hr D3; read-out: % inh/act @ 10 µM
  inhibition at 10 µM: 9%
Hr D3; read-out: % inh/act @ 30 µM
  inhibition at 30 µM: 7%
[3]
  EC50: 0.04 µM
Hr D1 antag; hr D1 antag
  EC50/IC50: > 30 µM
Hr D1 antag; read-out: % inh/act @ 10 µM
  inhibition at 10 µM: -11%
Hr D1 antag; read-out: % inh/act @ 30 µM
  inhibition at 30 µM: -5%
[4]
  micronucleus (MNT), risk of clastogenicity: did not indicate a risk
